The record followed here is patent US8038997B2, “Anti-marinobufagenin antibodies and methods for their use” (priority 2005, dated 2011).

Bounds are passed on as bounds.

One data set deals with 3E9 mAb. The data set is described as follows: Cross-reactivity of the 3E9 mAb (50% displacement of bound MBG). It counts as binding, mouse. The conditions noted are these: amount of MBG for 50% displacement versus amount of cross-reactant. The source says:
(§1) The percent cross-reactivity of the 3E9, 4G4 and 4H2 mAbs was defined as the ratio of the amount of MBG required to displace 50% of maximally bound MBG from the particular anti-MBG mAb, versus the amount of the cross-reactant to give the same 50% displacement. The binding specificities of the 3E9 mAb for a panel of steroids are shown in Table I; those for the 4112 and 4G4 mAbs are shown in Table II.

Another data set relates to 4H2 mAb. Briefly: Cross-reactivity of the 4H2 mAb (50% displacement of bound MBG). The conditions noted are these: amount of MBG for 50% displacement versus amount of cross-reactant. The format is binding, mouse.
Text: as §1

A further data set concerns 4G4 mAb. Briefly: Cross-reactivity of the 4G4 mAb (50% displacement of bound MBG). The following applies: amount of MBG for 50% displacement versus amount of cross-reactant. The format is binding, mouse.
Text: as §1

The subject of data set [1] is polyclonal antidigoxin rabbit antibody. The data set is described as follows: DELFIA immunoassay, displacement of digoxin standards. The format is binding. The following applies: equimolar concentrations of MBG and its conjugate. The text has this:
Prior to immunization, the conjugate MBG-glycoside-BSA was compared with MBG for its ability to react with polyclonal antidigoxin rabbit antibody, using a DELFIA immunoassay.

A short description of data set [2]: Experimental uremic cardiomyopathy: partial nephrectomy, MBG infusion, immunization against MBG-BSA. The conditions noted are these: male, Sprague-Dawley, rat, plasma, other: infusion with an osmotic minipump, 10 μg/kg per day. The procedure:
(§2) Male, Sprague-Dawley were use in this study. Rats subjected to sham surgery and no MBG infusion or partial nephrectomy were referred to as Sham (n=18). […] MBG-infused rats were referred to as MBG (n=20). Rats immunized against MBG-BSA conjugate before partial nephrectomy were referred to as PNx-IM (n=18).
(§3) MBG was isolated from toad (Bufo Marinus) venom. […] MBG was infused for a period of 4 weeks at 10 μg/kg per day with an osmotic minipump (Alzet Model 2004, Durect Corp).
(§4) Partial nephrectomy (five-sixth nephrectomy) was induced by removal of the right kidney and selective infarction of two-thirds of the left kidney with silk ligatures.
(§5) Rats were immunized with an MBG-BSA conjugate and subjected to partial nephrectomy. The immunization schedule was 3 weekly injections (250 μg/kg per week SQ) in complete Freund's adjuvant before the partial nephrectomy with a last boost at the time of surgery.
(§6) BP was measured once a week by the tail-cuff method in conscious, restrained rats with equipment made by IITC, Inc (Amplifier model 229, Monitor model 31, Test chamber Model 306; IITC Life Science). Before sacrifice at 4 weeks, animals had ventricular pressures determined by placement of a 2F Millar Microtip Catheter Transducer (Millar Instruments Inc) into the left ventricle through a carotid insertion. Hemodynamic data were acquired at 500 Hz and stored electronically using a BioPac MP110 acquisition system and AcqKnowledge 4.7.3 software (BIOPAC Systems, Inc). The values of left ventricular end-diastolic pressure (LVEDP), systolic pressure, developed pressure, maximal velocity of rise or fall in pressure (dP/dt) and the time constant for isovolumic relaxation were determined using standard methods. At the end of 4 weeks, 2D and M-mode echocardiographic studies were performed using a Philips Sonos 5500 cardiovascular ultrasound imaging system (Philips Medical Systems) equipped with a 15 MHz linear transducer. Parasternal long-axis and short-axis views were obtained.
(§7) MBG and ouabain-like compound (OLC) in plasma and urine was determined at 4 weeks after extraction with C-18 columns.
(§8) At the time of sacrifice, left ventricles were quickly dissected out, frozen in liquid nitrogen, and stored at −80° C. until further analysis. Western blot analysis was performed using SDS-PAGE gels (Ready Gel, BioRad).
(§9) Total protein carbonyl concentration of both the plasma and left ventricular homogenate was determined by ELISA using the Zentech PC Test kit (Northwest Life Science Specialties). Total plasma malondialdehyde was measured spectrophotometrically using the Bioxytech MDA-586 kit (Oxis Research).
(§10) To measure sarcoplasmic reticulum calcium ATPase activity, which is predominantly SERCA2a activity in left ventricles of rat cardiac tissue, the method of Simonides and van Hardeveld (Simonides and van Hardeveld, Anal. Biochem. 191:321-331, 1990) was used with minor modifications.
(§11) Hematocrit was measured from whole blood collected in heparinized capillary tubes and spun on a microhematocrit centrifuge (Fisher Scientific). Plasma creatinine was determined spectrophotometrically with a colorimetric end point assay (Teco Diagnostics). Plasma aldosterone levels were measured by ELISA (Cayman). Plasma parathyroid hormone was assayed using the Rat Intact PTH ELISA kit (Immutopics). All of the analyses were performed on blood collected upon sacrifice at 4 weeks.

For another data set, the system named is Sprague-Dawley rats. The description is as above. On the procedure: as §2, §3, §4, §5, §6, §7, §8, §9, §10, §11
The mark [3] stands for this setting: 4 weeks after MBG infusion or immunization prior to partial nephrectomy.

For the molecule `C[C@]12CC[C@H](O)C[C@H]1CC[C@@H]1[C@@H]2CC[C@]2(C)[C@@H](c3ccc(=O)oc3)CC[C@]12O` [Bufalin], the Percent cross-immunoreactivity with 3E9 mAb was determined as 0.25%. The “4H2 Percent cross-immunoreactivity” value in the data set on 4H2 mAb turned out to be 0.07%. The “4G4 Percent cross-immunoreactivity” value in the data set with 4G4 mAb is 0.08%.

`CC(=O)O[C@H]1[C@H]2O[C@]23[C@@H]2CC[C@@H]4C[C@@H](O)CC[C@]4(C)[C@H]2CC[C@]3(C)[C@H]1c1ccc(=O)oc1` [Cinobufagin] displayed a Percent cross-immunoreactivity with 3E9 mAb of 1.4%. Also, the “4H2 Percent cross-immunoreactivity” value in the data set on 4H2 mAb stood at 0.11%. Also, in the data set with 4G4 mAb, the “4G4 Percent cross-immunoreactivity” value turned out to be 0.07%.

In the data set on 3E9 mAb, `CC(=O)O[C@H]1[C@H]2O[C@]23[C@@H]2CC[C@]4(O)C[C@@H](O)CC[C@]4(C)[C@H]2CC[C@]3(C)[C@H]1c1ccc(=O)oc1` [Cinobufotalin] yielded a Percent cross-immunoreactivity of 4%. Moreover, the “4H2 Percent cross-immunoreactivity” value in the data set on 4H2 mAb is 58%. Further, the “4G4 Percent cross-immunoreactivity” value with 4G4 mAb worked out at 43%.

`C[C@]12C[C@H](O)[C@H]3[C@@H](CCC4=CC(=O)CC[C@@]43C)[C@@H]1CC[C@@H]2C(=O)CO` [Corticosterone]: in the data set on 3E9 mAb, the Percent cross-immunoreactivity is below 0.01%.

On to `C[C@H]1O[C@@H](O[C@H]2[C@@H](O)C[C@H](O[C@H]3[C@@H](O)C[C@H](O[C@H]4CC[C@@]5(C)[C@H](CC[C@@H]6[C@@H]5CC[C@]5(C)[C@@H](C7=CC(=O)OC7)CC[C@]65O)C4)O[C@@H]3C)O[C@@H]2C)C[C@H](O)[C@@H]1O` [Digitoxin], for which the Percent cross-immunoreactivity in the data set on 3E9 mAb was 0.7%.

On to `C[C@H]1O[C@@H](O[C@H]2[C@@H](O)C[C@H](O[C@H]3[C@@H](O)C[C@H](O[C@H]4CC[C@@]5(C)[C@H](CC[C@@H]6[C@@H]5C[C@@H](O)[C@]5(C)[C@@H](C7=CC(=O)OC7)CC[C@]65O)C4)O[C@@H]3C)O[C@@H]2C)C[C@H](O)[C@@H]1O` [Digoxin], for which, in the data set on 3E9 mAb, the Percent cross-immunoreactivity is reported as 1.8%. The “4H2 Percent cross-immunoreactivity” value in the data set with 4H2 mAb stood at 0.03%. Further, the “4G4 Percent cross-immunoreactivity” value with 4G4 mAb was found to be 0.003%.

`C[C@]12CC[C@H](O)C[C@@]1(O)CC[C@@H]1[C@@H]2CC[C@]2(C)[C@@H](c3ccc(=O)oc3)CC3O[C@@]312` (stereo partly drawn) [MBG, 3β,5β-dihydroxy-14,15-epoxy bufadienolide] yielded a Percent cross-immunoreactivity in the data set with 3E9 mAb of 100%. In addition, the “4H2 Percent cross-immunoreactivity” value in the data set with 4H2 mAb was determined as 100%. Moreover, the “4G4 Percent cross-immunoreactivity” value with 4G4 mAb is on record as 100%. Further, the “displacement of digoxin standards” value in data set [1] is given as “exactly similar displacement of digoxin standards”. Further, the concentration at 4 weeks in data set [2] was 0.546 ± 0.034 nM. In the data set with Sprague-Dawley rats (setting [3]), the Hematocrit was found to be 44.6 ± 0.9%, the “Left ventricular carbonylated protein” value is 505 ± 22 pmol/mg protein, the “Plasma [OLC]” value was 493 ± 41 pmol/L and the Plasma aldosterone was determined as 322 ± 38 pg/mL. In the data set with Sprague-Dawley rats (setting [3]), this molecule gave a Plasma carbonylated protein of 378 ± 15 pmol/mg protein, a Plasma creatinine of 0.52 ± 0.07 mg/dL, a Plasma parathyroid hormone of 41 ± 9 pg/mL and a Plasma total malondialdehyde of 474 ± 41 nm. Besides, in the data set on Sprague-Dawley rats (setting [3]), the “Urinary MBG excretion (UMBGV)” value came out at 49.1 ± 3.5 pmol/24 h and the “Urinary OLC excretion (UOLCV)” value stood at 10.6 ± 0.9 pmol/24 h. In addition, in the data set with Sprague-Dawley rats (Millar catheter after 4 weeks), the “left ventricular hemodynamics (dP/dt, LVEDP, time constant for isovolumic relaxation)” value was “only the changes in LVEDP and time constant for isovolumic relaxation achieved statistical significance”. In the data set with Sprague-Dawley rats (after 4 weeks), the “heart weight / cardiac size” value is on record as “significant increases in heart weight”. For the same molecule, the “echocardiographic changes (wall thickness, chamber size, FS)” value with Sprague-Dawley rats (at 4 weeks, MBG versus sham, immunization versus partial nephrectomy) is given as “not associated with significant changes”. Besides, the “systolic BP during the 4 weeks of observation” value with Sprague-Dawley rats (tail-cuff, conscious rats, MBG versus control, immunization versus partial nephrectomy) is reported as “some increases in BP”.

Consider `C[C@]12CC[C@H](OC(=O)CCCCCCC(=O)N[C@@H](CCCN=C(N)N)C(=O)O)C[C@@]1(O)CC[C@@H]1[C@@H]2CC[C@]2(C)[C@@H](c3ccc(=O)oc3)C[C@H]3O[C@]132` [Marinobufotoxin], for which the Percent cross-immunoreactivity in the data set with 3E9 mAb was 4%. Further, in the data set with 4H2 mAb, the “4H2 Percent cross-immunoreactivity” value was found to be 55%. Moreover, in the data set with 4G4 mAb, the “4G4 Percent cross-immunoreactivity” value worked out at 44%.

Molecule `C[C@]12C[C@@H](O)[C@H]3[C@@H](CC[C@]4(O)C[C@@H](O)C[C@@H](O)[C@]34CO)[C@@]1(O)CC[C@@H]2C1=CC(=O)OC1` [Ouabagenin] had a Percent cross-immunoreactivity in the data set on 3E9 mAb below 0.01%.

In the case of `C[C@@H]1O[C@@H](O[C@H]2C[C@@H](O)[C@]3(CO)[C@H]4[C@H](O)C[C@]5(C)[C@@H](C6=CC(=O)OC6)CC[C@]5(O)[C@@H]4CC[C@]3(O)C2)[C@H](O)[C@H](O)[C@H]1O` [Ouabain], the Percent cross-immunoreactivity with 3E9 mAb turned out to be 0.3%. For the same molecule, in the data set with 4H2 mAb, the “4H2 Percent cross-immunoreactivity” value stood at 0.03%. The “4G4 Percent cross-immunoreactivity” value in the data set with 4G4 mAb came out at 0.004%.

On to `C[C@]12C=CC(=O)C=C1CC[C@@H]1[C@@H]2C(=O)C[C@@]2(C)[C@H]1CC[C@]2(O)C(=O)CO` [Prednisone], for which, in the data set on 3E9 mAb, the Percent cross-immunoreactivity is on record as below 0.01%.

The molecule `CC(=O)[C@H]1CC[C@H]2[C@@H]3CCC4=CC(=O)CC[C@]4(C)[C@H]3CC[C@]12C` [Progesterone] registered a Percent cross-immunoreactivity with 3E9 mAb of 0.3%.

With `C[C@@H]1O[C@@H](O[C@@H]2C=C3CC[C@@H]4[C@H](CC[C@]5(C)[C@@H](c6ccc(=O)oc6)CC[C@]45O)[C@@]3(C)CC2)[C@H](O)[C@H](O)[C@H]1O` [Proscillaridin], the Percent cross-immunoreactivity with 3E9 mAb is 3%.

In the case of `C[C@]12CC[C@H](O)C[C@H]1CC[C@@H]1[C@@H]2CC[C@]2(C)[C@@H](c3ccc(=O)oc3)C[C@H]3O[C@]132` [Resibufagenin], the “4H2 Percent cross-immunoreactivity” value in the data set with 4H2 mAb was 0.2%. Further, the “4G4 Percent cross-immunoreactivity” value with 4G4 mAb was 0.6%.

With `CC(=O)S[C@@H]1CC2=CC(=O)CC[C@]2(C)[C@H]2CC[C@@]3(C)[C@@H](CC[C@@]34CCC(=O)O4)[C@H]12` [Spironolactone], in the data set with 3E9 mAb, the Percent cross-immunoreactivity came out at 0.22%.

The molecule Telocinobufotoxin yielded a Percent cross-immunoreactivity in the data set with 3E9 mAb of 7%.
